In ChEMBL document CHEMBL2407027, “(3R,4S,5R,6R,7S)-3,4,5,7-Tetrahydroxyconidine, an azetidine analogue of 6,7-diepicastanospermine and a conformationally constrained d-deoxyaltronojirimycin, from l-arabinose” (Bioorg Med Chem, 2013):

How the values were obtained:
[1] = Inhibition of rhizopus amyloglucosidase
[2] = Inhibition of Aspergillus niger amyloglucosidase
Sus scrofa = species: Sus scrofa; experiment: Inhibition of porcine kidney alpha,alpha-trehalase at 1000 uM
Escherichia coli = experiment: Inhibition of Escherichia coli beta-glucuronidase at 1000 uM
[3] = biological target: T1, Beta-glucuronidase (Bos taurus) (UniProt A3KMY8); experiment: Inhibition of bovine liver beta-glucuronidase at 1000 uM
T1 sequence (whole entry): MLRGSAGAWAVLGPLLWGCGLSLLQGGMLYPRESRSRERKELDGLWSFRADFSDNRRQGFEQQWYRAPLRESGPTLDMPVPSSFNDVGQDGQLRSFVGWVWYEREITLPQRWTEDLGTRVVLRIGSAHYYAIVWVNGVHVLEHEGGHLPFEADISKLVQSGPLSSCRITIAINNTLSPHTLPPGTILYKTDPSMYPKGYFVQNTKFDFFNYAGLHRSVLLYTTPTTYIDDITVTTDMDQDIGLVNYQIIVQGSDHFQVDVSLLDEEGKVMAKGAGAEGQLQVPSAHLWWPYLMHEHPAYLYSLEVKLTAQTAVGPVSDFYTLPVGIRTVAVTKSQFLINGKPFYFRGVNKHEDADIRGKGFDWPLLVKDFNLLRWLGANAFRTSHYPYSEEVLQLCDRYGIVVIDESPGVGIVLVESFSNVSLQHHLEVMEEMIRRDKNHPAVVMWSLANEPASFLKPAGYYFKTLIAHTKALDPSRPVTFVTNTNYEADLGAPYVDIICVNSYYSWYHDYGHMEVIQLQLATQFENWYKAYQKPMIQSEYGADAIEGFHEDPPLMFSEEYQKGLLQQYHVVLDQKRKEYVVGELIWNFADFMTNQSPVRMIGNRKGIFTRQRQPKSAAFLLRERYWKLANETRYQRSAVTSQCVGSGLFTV

[4] = biological target: T2, Tissue alpha-L-fucosidase (Bos taurus) (UniProt Q2KIM0); experiment: Inhibition of bovine alpha-L-fucosidase at 1000 uM
T2 sequence (whole entry): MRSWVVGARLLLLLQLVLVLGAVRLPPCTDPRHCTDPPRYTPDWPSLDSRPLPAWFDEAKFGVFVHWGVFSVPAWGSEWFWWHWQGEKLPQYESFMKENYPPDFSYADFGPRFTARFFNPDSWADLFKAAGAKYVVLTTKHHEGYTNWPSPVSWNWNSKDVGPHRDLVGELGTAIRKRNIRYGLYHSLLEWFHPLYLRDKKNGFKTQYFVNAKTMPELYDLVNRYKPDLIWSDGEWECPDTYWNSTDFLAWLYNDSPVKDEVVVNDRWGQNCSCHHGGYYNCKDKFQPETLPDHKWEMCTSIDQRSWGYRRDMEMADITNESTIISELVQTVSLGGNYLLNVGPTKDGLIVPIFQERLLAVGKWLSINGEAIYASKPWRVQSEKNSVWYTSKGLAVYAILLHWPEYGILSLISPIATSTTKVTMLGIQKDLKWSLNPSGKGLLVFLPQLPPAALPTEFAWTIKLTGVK

[5] = Inhibition of Penicillium decumbens alpha-L-rhamnosidase
Helix pomatia = experiment: Inhibition of snail beta-mannosidase at 1000 uM
[6] = Inhibition of rat beta-galactosidase
[7] = biological target: T3, Beta-galactosidase (Bos taurus) (UniProt Q58D55); experiment: Inhibition of bovine liver beta-galactosidase at 1000 uM
T3 sequence (whole entry): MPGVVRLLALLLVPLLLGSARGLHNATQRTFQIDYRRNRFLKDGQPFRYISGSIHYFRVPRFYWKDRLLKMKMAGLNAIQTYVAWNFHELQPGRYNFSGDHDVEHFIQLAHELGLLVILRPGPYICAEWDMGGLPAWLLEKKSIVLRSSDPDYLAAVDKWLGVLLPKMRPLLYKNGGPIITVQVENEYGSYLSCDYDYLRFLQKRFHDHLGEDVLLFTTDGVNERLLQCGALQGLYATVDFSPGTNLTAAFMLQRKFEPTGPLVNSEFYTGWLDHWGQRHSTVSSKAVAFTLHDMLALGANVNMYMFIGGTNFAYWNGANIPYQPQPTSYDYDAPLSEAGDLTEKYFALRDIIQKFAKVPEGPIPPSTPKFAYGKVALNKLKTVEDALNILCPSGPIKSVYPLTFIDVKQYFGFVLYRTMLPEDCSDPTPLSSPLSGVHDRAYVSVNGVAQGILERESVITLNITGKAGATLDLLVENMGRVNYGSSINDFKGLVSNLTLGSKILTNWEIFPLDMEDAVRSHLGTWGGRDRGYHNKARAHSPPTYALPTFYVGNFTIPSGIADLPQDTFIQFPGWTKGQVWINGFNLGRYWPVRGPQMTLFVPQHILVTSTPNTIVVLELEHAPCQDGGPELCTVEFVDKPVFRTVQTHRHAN

Coffea = experiment: Inhibition of coffee beans alpha-galactosidase at 1000 uM
Aspergillus niger [8] = experiment: Inhibition of Aspergillus niger beta-glucosidase at 1000 uM
[9] = Inhibition of almond beta-glucosidase; set-up: species or system Prunus dulcis
Alpha-glucosidase = biological target: T4, Alpha-glucosidase (Aspergillus niger, UniProt P56526); experiment: Inhibition of Aspergillus niger alpha-glucosidase
T4 sequence (P56526 whole entry): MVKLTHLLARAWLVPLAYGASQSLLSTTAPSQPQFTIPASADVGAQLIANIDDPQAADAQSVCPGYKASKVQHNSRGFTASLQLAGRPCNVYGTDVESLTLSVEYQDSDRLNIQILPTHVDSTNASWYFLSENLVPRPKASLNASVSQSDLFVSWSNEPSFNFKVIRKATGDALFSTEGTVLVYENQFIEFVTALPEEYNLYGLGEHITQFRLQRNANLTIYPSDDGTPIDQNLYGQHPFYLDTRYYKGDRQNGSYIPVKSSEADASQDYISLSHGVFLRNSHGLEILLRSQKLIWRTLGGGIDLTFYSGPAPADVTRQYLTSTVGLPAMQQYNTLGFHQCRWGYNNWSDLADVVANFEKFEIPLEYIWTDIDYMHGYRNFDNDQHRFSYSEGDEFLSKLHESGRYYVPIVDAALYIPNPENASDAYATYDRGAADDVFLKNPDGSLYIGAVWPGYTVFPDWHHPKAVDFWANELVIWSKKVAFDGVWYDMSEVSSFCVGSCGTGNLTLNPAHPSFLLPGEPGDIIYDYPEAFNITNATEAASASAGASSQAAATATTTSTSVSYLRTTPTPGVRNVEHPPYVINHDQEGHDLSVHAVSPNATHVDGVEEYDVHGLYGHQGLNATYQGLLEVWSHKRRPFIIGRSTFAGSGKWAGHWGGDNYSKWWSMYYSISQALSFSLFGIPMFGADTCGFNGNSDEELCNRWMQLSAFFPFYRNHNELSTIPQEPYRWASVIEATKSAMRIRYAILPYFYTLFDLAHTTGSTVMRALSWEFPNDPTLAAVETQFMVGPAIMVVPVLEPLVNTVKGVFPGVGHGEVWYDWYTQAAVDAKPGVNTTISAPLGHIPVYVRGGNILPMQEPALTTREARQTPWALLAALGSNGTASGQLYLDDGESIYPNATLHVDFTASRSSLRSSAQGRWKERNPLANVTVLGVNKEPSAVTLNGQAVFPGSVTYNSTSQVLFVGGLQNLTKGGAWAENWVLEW

Saccharomyces cerevisiae = experiment: Inhibition of yeast alpha-glucosidase at 1000 uM
[10] = Inhibition of rat intestinal alpha-glucosidase
Oryza sativa = experiment: Inhibition of rice alpha-glucosidase at 1000 uM
Rhizopus = experiment: Inhibition of rhizopus amyloglucosidase at 1000 uM
Aspergillus niger [11] = experiment: Inhibition of Aspergillus niger amyloglucosidase at 1000 uM
Penicillium decumbens = experiment: Inhibition of Penicillium decumbens alpha-L-rhamnosidase at 1000 uM
[12] = biological target: T5, Tissue alpha-L-fucosidase (Bos taurus, UniProt Q2KIM0); experiment: Inhibition of bovine alpha-L-fucosidase
T5 sequence (Q2KIM0 whole entry): T2 sequence (whole entry)

[13] = biological target: T6, Glucosylceramidase (Bos taurus) (UniProt Q2KHZ8); experiment: Inhibition of bovine liver beta-glucosidase at 1000 uM
T6 sequence (whole entry): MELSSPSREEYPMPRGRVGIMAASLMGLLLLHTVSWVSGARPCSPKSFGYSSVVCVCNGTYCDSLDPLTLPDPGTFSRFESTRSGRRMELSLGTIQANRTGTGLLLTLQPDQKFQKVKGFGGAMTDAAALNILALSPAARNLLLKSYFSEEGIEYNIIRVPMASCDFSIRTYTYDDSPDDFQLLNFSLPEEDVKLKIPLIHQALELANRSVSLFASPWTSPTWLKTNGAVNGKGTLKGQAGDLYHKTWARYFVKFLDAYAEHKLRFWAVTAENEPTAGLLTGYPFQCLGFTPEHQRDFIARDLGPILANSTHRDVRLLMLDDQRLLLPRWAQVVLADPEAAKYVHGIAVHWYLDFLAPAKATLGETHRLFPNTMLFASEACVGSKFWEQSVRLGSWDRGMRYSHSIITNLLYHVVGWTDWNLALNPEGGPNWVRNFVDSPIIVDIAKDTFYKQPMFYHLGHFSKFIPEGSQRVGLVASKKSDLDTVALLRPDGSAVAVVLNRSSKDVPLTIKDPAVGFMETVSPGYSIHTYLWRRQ

Rattus norvegicus [14] = species: Rattus norvegicus; experiment: Inhibition of rat intestinal beta-galactosidase at 1000 uM
Prunus dulcis = experiment: Inhibition of almond beta-glucosidase at 1000 uM
[15] = biological target: T7, Alpha-glucosidase (Aspergillus niger) (UniProt P56526); experiment: Inhibition of Aspergillus niger alpha-glucosidase at 1000 uM
T7 sequence (whole entry): T4 sequence (P56526 whole entry)

Rattus norvegicus [16] = species: Rattus norvegicus; experiment: Inhibition of rat intestinal alpha-glucosidase at 1000 uM

Row | SMILES | IC50 [1] [µM] | IC50 [2] [µM] | inhibition (Sus scrofa) [%] | inhibition (Escherichia coli) [%] | inhibition [3] [%] | inhibition [4] [%] | inhibition (Helix pomatia) [%] | inhibition [7] [%] | inhibition (Coffea) [%] | inhibition (Aspergillus niger [8]) [%] | inhibition (Saccharomyces cerevisiae) [%] | inhibition (Oryza sativa) [%] | inhibition (Aspergillus niger [11]) [%] | inhibition (Penicillium decumbens) [%] | inhibition [13] [%] | inhibition (Rattus norvegicus [14]) [%] | inhibition (Prunus dulcis) [%] | inhibition [15] [%] | inhibition (Rattus norvegicus [16]) [%] | further results
1 | OC[C@H](O)[C@@H]1NC[C@@H]1O | 19 | 105 | 5.8 | 0 | 7.4 | 4.6 | 0 | 25.2 | 7.6 | 0.4 | 16 | 12.1 |  |  |  |  |  |  |  | IC50 [5]: 634 µM; IC50 [6]: 70 µM; IC50 [9]: 347 µM; IC50 (Alpha-glucosidase): 39 µM; IC50 [10]: 607 µM
2 | OC[C@H]1NC[C@@H](O)[C@H](O)[C@@H]1O |  |  | 2.1 | 0 | 7.4 |  | 0 | 19.9 | 20.5 | 1.8 | 1.4 | 7.2 | 5 | 2.1 | 10.9 | 44.6 | 18.8 | 19.1 | 24.2 | inhibition (Rhizopus): 7%; IC50 [12]: 194 µM
3 | O[C@@H]1[C@H](O)[C@H]2[C@@H](O)CCN2C[C@H]1O |  | 8 |  |  |  |  |  |  |  |  |  |  |  |  |  |  |  |  |  | 
4 | O[C@H]1CCCN2C[C@H](O)[C@H]12 | 243 | 930 | 1 | 13.2 | 0 | 0 | 0 | 14 | 8.4 | 0 | 1.6 | 0 |  |  | 9.7 | 32.2 | 0 |  | 14.3 | IC50 [5]: 117 µM; IC50 (Alpha-glucosidase): 307 µM
5 | O[C@H]1[C@H](O)CN2CCCC[C@H]12 [(-)-LENTIGINOSINE] |  | 32 |  |  |  |  |  |  |  |  |  |  |  |  |  |  |  |  |  | 
6 | O[C@H]1[C@H](O)[C@@H](O)CN2CC[C@H](O)[C@H]12 [CASTANOSPERMINE] |  | 8 |  |  |  |  |  |  |  |  |  |  |  |  |  |  |  |  |  | 
7 | O[C@@H]1[C@H](O)[C@H]2[C@@H](O)CN2C[C@H]1O [(3R,4S,5R,6R,7S)-3,4,5,7-TETRAHYDROXYCONIDINE] | 532 |  | 9 | 0 | 7.8 | 2 | 0 | 43.4 | 3.5 | 1.8 | 0 | 13.8 | 31.3 | 2 | 18.9 |  | 31.1 | 47.3 | 30.3 | IC50 [6]: 418 µM
8 | O=C1CC[C@H](O)[C@H]2[C@@H](O)CN12 |  |  | 5.2 | 8.9 | 4.2 | 0 | 0 | 13.4 | 0 | 1.2 | 3.1 | 2.7 | 3 | 11.1 | 14.9 | 0 | 0 | 0 | 25.2 | inhibition (Rhizopus): 3.8%
